# Measurements published in PubChem BioAssay AID1963984 (Molecular Pharmacology Branch, DTP, NCI, 2024).
# Test system: 233499-124-R-J3-PDC spheroids with HUVEC/MSC, viability
# Assay: Anticancer human tumor 233499-124-R-J3-PDC patient-derived colon adenocarcinoma cell line growth inhibition [PI3K]
# Details: for IC50: curve of first compound; for viability, T/C: stronger effect = lower value
# In short: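 We assembled tumor spheroids that included a stromal compartment of HUVEC and MSCs, then exposed them to targeted agents alone and together with PI3K pathway inhibitors. Concentration series descended by half-log from clinically achievable Cmax levels. Viability served as the endpoint.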
# [1] = second compound 0.0316 µM, first compound 0.0316 µM
# [2] = second compound 0.0316 µM, first compound 0.1 µM
# [3] = second compound 0.0316 µM, first compound 0.316 µM
# [4] = second compound 0.0316 µM, first compound 1 µM
# [5] = second compound 0.0316 µM, first compound 3.16 µM
# [6] = second compound 0.0316 µM, first compound 10 µM
# [7] = second compound 0.1 µM, first compound 0.0316 µM
# [8] = second compound 0.1 µM, first compound 0.1 µM
# [9] = second compound 0.1 µM, first compound 0.316 µM
# [10] = second compound 0.1 µM, first compound 1 µM
# [11] = second compound 0.1 µM, first compound 3.16 µM
# [12] = second compound 0.1 µM, first compound 10 µM
# [13] = second compound 0.316 µM, first compound 0.0316 µM
# [14] = second compound 0.316 µM, first compound 0.1 µM
# [15] = second compound 0.316 µM, first compound 0.316 µM
# [16] = second compound 0.316 µM, first compound 1 µM
# [17] = second compound 0.316 µM, first compound 3.16 µM
# [18] = second compound 0.316 µM, first compound 10 µM
# [19] = second compound 1 µM, first compound 0.0316 µM
# [20] = second compound 1 µM, first compound 0.1 µM
# [21] = second compound 1 µM, first compound 0.316 µM
# [22] = second compound 1 µM, first compound 1 µM
# [23] = second compound 1 µM, first compound 3.16 µM
# [24] = second compound 1 µM, first compound 10 µM
# [25] = second compound 3.16 µM, first compound 0.0316 µM
# [26] = second compound 3.16 µM, first compound 0.1 µM
# [27] = second compound 3.16 µM, first compound 0.316 µM
# [28] = second compound 3.16 µM, first compound 1 µM
# [29] = second compound 3.16 µM, first compound 3.16 µM
# [30] = second compound 3.16 µM, first compound 10 µM
# [31] = second compound 10 µM, first compound 0.0316 µM
# [32] = second compound 10 µM, first compound 0.1 µM
# [33] = second compound 10 µM, first compound 0.316 µM
# [34] = second compound 10 µM, first compound 1 µM
# [35] = second compound 10 µM, first compound 3.16 µM
# [36] = second compound 10 µM, first compound 10 µM
# 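Also: spheroids exposed to agents for seven days before readout.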
# 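For viability, T/C in this document: percent viability relative to DMSO vehicle control taken as 100%.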
smiles,measurement,setting,value
C[C@@H](NC(=O)c1ncnc(N)c1Cl)c1ncc(C(=O)Nc2cc(C(F)(F)F)c(Cl)cn2)s1 + CC(Nc1ncnc2nc[nH]c12)c1cc2cccc(Cl)c2c(=O)n1-c1ccccc1,IC50,second compound 0.0316 µM,> 10 µM
same,IC50,second compound 0.1 µM,> 10 µM
same,IC50,second compound 0.316 µM,> 10 µM
same,IC50,second compound 1 µM,> 10 µM
same,IC50,second compound 3.16 µM,> 10 µM
same,IC50,second compound 10 µM,> 10 µM
same,"viability, T/C",[1],110%
same,"viability, T/C",[2],105%
same,"viability, T/C",[3],109%
same,"viability, T/C",[4],104%
same,"viability, T/C",[5],105%
same,"viability, T/C",[6],78.4%
same,"viability, T/C",[7],97.4%
same,"viability, T/C",[8],105%
same,"viability, T/C",[9],116%
same,"viability, T/C",[10],106%
same,"viability, T/C",[11],110%
same,"viability, T/C",[12],101%
same,"viability, T/C",[13],109%
same,"viability, T/C",[14],120%
same,"viability, T/C",[15],111%
same,"viability, T/C",[16],95.4%
same,"viability, T/C",[17],89.2%
same,"viability, T/C",[18],98.5%
same,"viability, T/C",[19],83.3%
same,"viability, T/C",[20],92.9%
same,"viability, T/C",[21],109%
same,"viability, T/C",[22],116%
same,"viability, T/C",[23],111%
same,"viability, T/C",[24],93.7%
same,"viability, T/C",[25],106%
same,"viability, T/C",[26],101%
same,"viability, T/C",[27],97.7%
same,"viability, T/C",[28],109%
same,"viability, T/C",[29],109%
same,"viability, T/C",[30],95.6%
same,"viability, T/C",[31],87.8%
same,"viability, T/C",[32],90.2%
same,"viability, T/C",[33],101%
same,"viability, T/C",[34],97.7%
same,"viability, T/C",[35],108%
same,"viability, T/C",[36],97%
Cn1ncc(Cl)c1-c1cc(C(=O)NC(CN)Cc2cccc(F)c2)sc1Cl (stereo unspecified) + CC(Nc1ncnc2nc[nH]c12)c1cc2cccc(Cl)c2c(=O)n1-c1ccccc1,IC50,second compound 0.0316 µM,3.2 µM
same,IC50,second compound 0.1 µM,4.73 µM
same,IC50,second compound 0.316 µM,3.13 µM
same,IC50,second compound 1 µM,4.11 µM
same,IC50,second compound 3.16 µM,5.24 µM
same,IC50,second compound 10 µM,5.3 µM
same,"viability, T/C",[1],70.5%
same,"viability, T/C",[2],105%
same,"viability, T/C",[3],60.3%
same,"viability, T/C",[4],91.5%
same,"viability, T/C",[5],50.2%
same,"viability, T/C",[6],26.3%
same,"viability, T/C",[7],86.4%
same,"viability, T/C",[8],108%
same,"viability, T/C",[9],94.2%
same,"viability, T/C",[10],58.2%
same,"viability, T/C",[11],75.7%
same,"viability, T/C",[12],24.7%
same,"viability, T/C",[13],115%
same,"viability, T/C",[14],107%
same,"viability, T/C",[15],70.6%
same,"viability, T/C",[16],62.7%
same,"viability, T/C",[17],63.6%
same,"viability, T/C",[18],28.7%
same,"viability, T/C",[19],94.8%
same,"viability, T/C",[20],90.9%
same,"viability, T/C",[21],86.1%
same,"viability, T/C",[22],73.5%
same,"viability, T/C",[23],59.6%
same,"viability, T/C",[24],24.6%
same,"viability, T/C",[25],97%
same,"viability, T/C",[26],98.6%
same,"viability, T/C",[27],79.1%
same,"viability, T/C",[28],106%
same,"viability, T/C",[29],64.5%
same,"viability, T/C",[30],31.5%
same,"viability, T/C",[31],94.8%
same,"viability, T/C",[32],92%
same,"viability, T/C",[33],108%
same,"viability, T/C",[34],65.2%
same,"viability, T/C",[35],69.6%
same,"viability, T/C",[36],32.4%
Cn1ncnc1[C@H]1c2n[nH]c(=O)c3cc(F)cc(c23)N[C@@H]1c1ccc(F)cc1 + CC(Nc1ncnc2nc[nH]c12)c1cc2cccc(Cl)c2c(=O)n1-c1ccccc1,IC50,second compound 0.0316 µM,> 0.1 µM
same,IC50,second compound 0.1 µM,> 0.1 µM
same,IC50,second compound 0.316 µM,> 0.1 µM
same,IC50,second compound 1 µM,> 0.1 µM
same,IC50,second compound 3.16 µM,> 0.1 µM
same,IC50,second compound 10 µM,> 0.1 µM
same,"viability, T/C","second compound 0.0316 µM, first compound 0.000316 µM",90.9%
same,"viability, T/C","second compound 0.0316 µM, first compound 0.001 µM",82%
same,"viability, T/C","second compound 0.0316 µM, first compound 0.00316 µM",84.9%
same,"viability, T/C","second compound 0.0316 µM, first compound 0.01 µM",87.8%
same,"viability, T/C",[1],75.4%
same,"viability, T/C",[2],69%
same,"viability, T/C","second compound 0.1 µM, first compound 0.000316 µM",99.7%
same,"viability, T/C","second compound 0.1 µM, first compound 0.001 µM",106%
same,"viability, T/C","second compound 0.1 µM, first compound 0.00316 µM",70.9%
same,"viability, T/C","second compound 0.1 µM, first compound 0.01 µM",73.4%
same,"viability, T/C",[7],74.1%
same,"viability, T/C",[8],72.2%
same,"viability, T/C","second compound 0.316 µM, first compound 0.000316 µM",90%
same,"viability, T/C","second compound 0.316 µM, first compound 0.001 µM",94.7%
same,"viability, T/C","second compound 0.316 µM, first compound 0.00316 µM",70.3%
same,"viability, T/C","second compound 0.316 µM, first compound 0.01 µM",76.7%
same,"viability, T/C",[13],64.9%
same,"viability, T/C",[14],70%
same,"viability, T/C","second compound 1 µM, first compound 0.000316 µM",85.7%
same,"viability, T/C","second compound 1 µM, first compound 0.001 µM",77.8%
same,"viability, T/C","second compound 1 µM, first compound 0.00316 µM",89%
same,"viability, T/C","second compound 1 µM, first compound 0.01 µM",84.2%
same,"viability, T/C",[19],77.7%
same,"viability, T/C",[20],54.1%
same,"viability, T/C","second compound 3.16 µM, first compound 0.000316 µM",79.9%
same,"viability, T/C","second compound 3.16 µM, first compound 0.001 µM",85.9%
same,"viability, T/C","second compound 3.16 µM, first compound 0.00316 µM",90.3%
same,"viability, T/C","second compound 3.16 µM, first compound 0.01 µM",82.4%
same,"viability, T/C",[25],76.8%
same,"viability, T/C",[26],76.5%
same,"viability, T/C","second compound 10 µM, first compound 0.000316 µM",89.7%
same,"viability, T/C","second compound 10 µM, first compound 0.001 µM",71.3%
same,"viability, T/C","second compound 10 µM, first compound 0.00316 µM",85.2%
same,"viability, T/C","second compound 10 µM, first compound 0.01 µM",92.3%
same,"viability, T/C",[31],66.9%
same,"viability, T/C",[32],72.2%
